These are literature values, as cited in patent publication KR20170036668A, “피부 발진의 예방 또는 치료용 약학 조성물” (주식회사 대웅제약, priority 2014, dated 2017).

Structures are written as SMILES.

For series [1], the system named is 피부 발진. The settings on record: prophylactic treatment; Jatoi A et al., Cancer 113:847-853.

For the compound `C#Cc1cccc(Nc2ncnc3cc(OCCOC)c(OCCOC)cc23)c1` [엘로티닙], for the setting “NSCLC and PC clinical trials”, the “Incidence of erlotinib related skin effect (ERSE)” value was 75% and the “Proportion of patients with grade 3-4 ERSE” value is reported as roughly 10%. In addition, where the note is “rash above the waist”, the “Time to onset of rash after start of treatment” value is on record as 7-10 일.

As for `CN(C)[C@@H]1C(O)=C(C(N)=O)C(=O)[C@@]2(O)C(O)=C3C(=O)c4c(O)cccc4[C@@](C)(O)[C@H]3C[C@@H]12` [테트라사이클린], the “Improvement of skin rash versus placebo” value in series [1] is given as 30%.
